Here are results for one molecule from article PMC2745333 (Molecular Microbiology, 2009).

In this assay the target is PspF1−275 (Escherichia coli, UniProt P37344). In words: analytical gel filtration, ADP-dependent dimer-to-hexamer shift. It counts as binding. The following applies: 0.5 mM ADP, 10 μM protein, pH 8.0, 15 mM MgCl2, room temperature. (Size exclusion chromatography separates by hydrodynamic size, large species first.)
PspF1−275, sequence (P37344 1-275): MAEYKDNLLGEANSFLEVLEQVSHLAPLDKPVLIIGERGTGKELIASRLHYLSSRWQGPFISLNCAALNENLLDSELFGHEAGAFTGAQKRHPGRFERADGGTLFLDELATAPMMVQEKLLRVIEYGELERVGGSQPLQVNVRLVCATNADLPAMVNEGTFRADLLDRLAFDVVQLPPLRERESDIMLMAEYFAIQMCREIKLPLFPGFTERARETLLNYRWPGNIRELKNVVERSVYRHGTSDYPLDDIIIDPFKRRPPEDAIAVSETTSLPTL

As to `Nc1ncnc2c1ncn2[C@@H]1O[C@H](COP(=O)(O)OP(=O)(O)O)[C@@H](O)[C@H]1O` [ADP], the “analytical gel filtration, ADP-dependent dimer-to-hexamer shift” value is “dimers (Fig. 4A) in the absence of nucleotide and hexamers in the presence of ADP”.
